# Data reported in paper PMC3691018 (Bioorganic & medicinal chemistry letters, 2013).
# Target: Bacillus anthracis DNA replicative helicase (Bacillus anthracis, UniProt A0A0J1HKT7)
# Test: biochemical
# Type: biochemical
SMILES,Activity vs B. anthracis helicase (in words),IC50 [µM]
COc1cccc(C(=O)Nc2nc3ccc4nc(NC(C)C)sc4c3s2)c1 [Compound 51],significantly reduced activity,–
COc1cccc(C(=O)Nc2nc3ccc4nc(NCC(C)C)sc4c3s2)c1 [Compound 52],modest inhibition,–
COc1cccc(C(=O)Nc2nc3ccc4nc(NC5CCCCC5)sc4c3s2)c1 [Compound 53],significantly reduced activity,–
COc1cccc(C(=O)Nc2nc3ccc4nc(NCc5ccccc5)sc4c3s2)c1 [Compound 54],significantly reduced activity,–
COc1cc(CNc2nc3ccc4nc(SC)sc4c3s2)cc(OC)c1OC [Compound 64],lost activities,> 100
COc1cc(/C=N/c2nc3ccc4nc(SC)sc4c3s2)cc(OC)c1OC [Compound 65],lost activities,> 100

# Test system: HeLa
# Test: not given
# Type: cell-based
row,SMILES,Selectivity index (SI = CC50/IC50)
1,CNc1nc2ccc3nc(NC(=O)c4cc(OC)c(OC)c(OC)c4)sc3c2s1 [Compound 59],greater than 500
